Molecular target: T1, PBP6Cp (Chlamydia pneumoniae, UniProt A0A0F7X2J0)
T1 construct: native N-terminal signal peptide and C-terminal transmembrane domain removed; OmpA leader (cleaved by E. coli signal peptidase I); C-terminal Strep tag kept; periplasmic expression in E. coli C43(DE3) with betaine
Assay: TLC of lipid II DD-carboxypeptidase reaction
Assay type: biochemical
Conditions: lipid II substrate; 50 mM MES pH 5.5, 2 mM MgCl2, 20% DMSO, 37 C, 4 h; inhibitor concentration not given; active-site serine acylation (covalent) described as general beta-lactam mechanism

CC1(C)S[C@@H]2[C@H](NC(=O)Cc3ccccc3)C(=O)N2[C@H]1C(=O)O [penicillin G]
TLC of lipid II DD-carboxypeptidase reaction: DD-carboxypeptidase activity of wild type PBP6Cp was stalled in the presence of penicillin G
